“Also recorded” adds a separate entry of the source.
Legend:
[1] = test system: 3×2 RNA internal loop library (3×2 ILL); assay: AbsorbArray 2DCS selection with Inforna fitness analysis; assay type: binding, human
Description: Construction of AbsorbArray Small Molecule Microarrays. Microarrays were constructed as previously reported^4. Briefly, a 1% agarose solution was poured onto a glass slide and dried on the benchtop. A 200 nL aliquot of 68 hit compounds (10 mM in DMSO) was pinned onto the array from a 384-well plate using Biomek NXP Laboratory Automation Workstation. Slides were then dried overnight to obtain a thin, invisible agarose layer. Slides were washed three times with 1×PBST^5 and then three times with nanopure water. Slides were dried completely in the air before RNA selection, completed by Two-Dimensional Combinatorial Screening (2DCS).
RNA Selection and Screening by 2DCS. The 3×2 RNA ILL was 5′-end ^32P-labeled as previously described^7 and 2DCS selections were completed as previously described 4. All oligonucleotides were folded as described in the “Solution-based Dye Displacement Assay” section. Small molecule microarrays were pre-equilibrated by 3 mL 1× AB2 for 5 min. After removing the pre-equilibration buffer, 5′-end labeled folded 3×2 RNA ILL (~50,000 cpm) was added in 3 mL 1× AB2 containing 1 mM MgCl2 in the presence of competitor oligonucleotides (100 μM each). The oligonucleotide solution was evenly distributed across the microarray surface with a custom-cut piece of Parafilnm. After incubating for 30 min at room temperature, the Parafilm was removed, and the slide was washed gently by submersion in 1× AB2 for 30 s. This washing step was repeated three additional times, and the array was dried on the benchtop for 1 h. […] To harvest and collect the bound RNAs from the ILL, 1 μL of nanopure water was added to each spot. After 30 s, the water drop was absorbed into agarose gel, hydrating it such that it could be excised with a toothpick. The RNAs were eluted from the agarose by simple incubation with water, and then treated with RNase-free DNase I. A unique barcode for each small molecule was installed by reverse transcription (RT). Barcoded RNAs were amplified by PCR, purified, and identified by next-generation sequencing (NGS) using an Ion Proton deep sequencer using PI chips (60-80 million reads) as previously described^2.

[2] = test system: base pair mutant RNA (control RNA); assay: Fluorescent binding affinity measurement, base pair mutant (control RNA); conditions: up to 40 μM of the mutant RNA
Description: Fluorescent Binding Affinity Measurements. Binding assays were completed as previously described^5. Briefly, the RNA of interest was folded as described in the “Solution-based Dye Displacement Assay” section, including the addition of BSA. Then, 1 was added to the RNA solution to a final concentration of 0.5 μM. The solution was serial diluted with 1× AB2 containing 0.5 μM of 1. The solutions were incubated at room temperature in the dark for 30 min. The solutions were then transferred to a black 384-well plate. Fluorescence intensity was measured using a Tecan plate reader (Gain: 100, Integration time: 40 μs) with excitation wavelength of and emission wavelength of 355 nm and 535 nm, respectively. The change in fluorescence was normalized to samples lacking RNA. Binding affinity was calculated by using Equation 2, as previously described^5. I=I0+0.5Δε{([FL]0+[RNA]0+Kd)−(([FL]0+[RNA]0+Kd)^2−4[FL]0[RNA]0)^0.5} (2) where I and I0 are the measured fluorescence intensity of compound with or without RNA, respectively, Δε is the difference between the fluorescence intensity with infinite concentration of RNA or without RNA, [FL]0 and [RNA]0 are the concentrations of small molecule and RNA, respectively, and Kd is the dissociation constant.

Alport mice (Col4a3−/−) = assay: Alport mice studies; assay type: in vivo, mouse
Description: (§1) Alport Mice Studies. Alport mice (Col4a3^−/−) and wild type (WT) mice (Col4a3^+/+) were obtained from the breeding of heterozygous […]. Urine was collected 1 day before the treatment, considered as Day 1. The treatment started at Day 2, at around 4 weeks of age. Alport mice were treated with vehicle or 2 as described for NOD/SCID mice in the “In Vivo Studies to Assess Metastasis of Breast Cancer to the Lung” section. Urine was collected every other day for analysis of albumin or creatine levels. After 6 weeks of treatment, the mice were euthanized on Day 43. One kidney was frozen in −80° C. for Western blot and RT-qPCR analyses. The other kidney was fixed in formalin for paraffin-embedding sectioning and further staining.
(§2) Evaluation of Kidney Function. The concentration of urine albumin was determined by using a Mouse Albumin ELISA Kit (Bethyl Laboratories Inc, E99-134) per the manufacturer's protocol. Urine creatinine level was measured by using a Urinary Creatinine Assay Kit (Fisher Scientific, 50-673-569) per the manufacturer's protocol.
(§3) Kidney Tissue Histology. Silver staining, PAS staining, and PPARα staining were performed by Histology Core at Scripps Research Florida. The anti-PPARα (Abcam, ab215270) was used at 1:1000 dilution. FISH imaging of miR-21 and pre-miR-21 were completed as described in “Lung Tissue Histology”.

[3] = test system: wild type (WT) mice (Col4a3+/+); assay: Wild type mice, control for Alport studies; assay type: in vivo, mouse
Description: as §1, §2, §3

[4] = Quantitation of 1 and 2 in mouse plasma and tissue; assay type: in vivo; conditions: male, C57BL/6, mouse, lung, ip, 56 mg/kg; intraperitoneal injection; read-out: drug exposure in the lung
Description: Quantitation of 1 and 2 in mouse plasma and tissue. Male C57BL/6 mice (n=3 per dose; 5-7 weeks) were intraperitoneally (i.p.) injected with 1 (24, 49 or 81 mg/kg) or 2 (17, 34 or 56 mg/kg) in a formulation of DMSO/Tween-80/H2O (10/10/80). After 48 h, mice were euthanized, and blood, lung and kidney were collected. Tissues were immediately frozen. Blood was centrifuged to generate plasma and immediately frozen. On the day of analysis, tissues were homogenized, mixed with 5-times volume of acetonitrile, and filtered. Drug levels were determined by mass spectrometry using an ABSciex 5500 mass spectrometer using multiple reaction monitoring.

| SMILES | number of binding RNA motifs ([1]; Zobs>8) | Fitness score of A bulge (5'GAC/3'C_G) in the Dicer processing site of pre-miR-21 ([1]; normalized to most significant motif = 100) | binding to control RNA / base pair mutant [2] | body weight of Alport mice (Alport mice (Col4a3−/−); 56 mg/kg q.o.d.) | urine albumin normalized to urine creatinine (Alport mice (Col4a3−/−); 56 mg/kg, q.o.d., 42 days) | PPARα expression in kidneys (Alport mice (Col4a3−/−); Alport mice) | tubule injury / tubulointerstitial pathology (Alport mice (Col4a3−/−); PAS staining) | pre-miR-21 levels in kidneys (Alport mice (Col4a3−/−); both Alport and WT mice) | mature miR-21 levels in kidneys (Alport mice (Col4a3−/−); both WT and Alport mice, RT-qPCR) | glomerulosclerosis (Alport mice (Col4a3−/−); silver methenamine staining) | body weight of WT mice ([3]; 56 mg/kg q.o.d., 6 weeks) | PPARα expression in kidneys ([3]; WT mice) | urine albumin normalized to urine creatinine ([3]; WT mice, 56 mg/kg q.o.d.) | concentration at 48 h [4] [nM] |
| --- | --- | --- | --- | --- | --- | --- | --- | --- | --- | --- | --- | --- | --- | --- |
| CN1CCN(c2ccc3nc(-c4c(N)c5c(F)cccc5[nH]c4=O)[nH]c3c2)CC1 [Compound 1, Dovitinib, reference compound] | 256 | 85 | No saturable binding |  |  |  |  |  |  |  |  |  |  |  |
| CCOC(=O)C1=C(Nc2ccccc2)S/C(=C\c2ccc(OCCOCCOCCOCCNC(=O)NCCN3CCN(c4ccc5[nH]c(-c6c(N)c7c(F)cccc7[nH]c6=O)nc5c4)CC3)c(O)c2)C1=O [Compound 2, Ribotac-Dovitinib] |  |  |  | gained more weight than vehicle-treated mice | stabilized; also recorded: decreased urine albumin concentration | enhanced; also recorded: derepressed | significantly reduced; also recorded: prevented tubule injury | reduced; also recorded: decreased | decreased miR-21 levels; also recorded: reduced | prevents glomerulosclerosis and tubular atrophy; also recorded: significantly reduced | gained weight at a similar rate as vehicle-treated mice | no significant effect | no effect | 1000 |

Reference: patent US12702715B2, “Targeted RNA degradation allows precision repurposing of protein-targeted small molecule medicines to RNA” (University of Florida Research Foundation, Incorporated, priority 2020, dated 2026)
